Laboratory results taken from patent publication EP0652008A1 (priority 1993, dated 1995).
Read-outs that look alike come from different tables or passages of the source.

What was measured:
Francisella tularensis [1] = type: in vivo, BALB/c mice; conditions: for % SURVIVALS AT DAY 14 POST INFECTION: single dose
Francisella tularensis [2] = type: in vivo, BALB/c mice; conditions: for % SURVIVALS AT DAY 14 POST INFECTION: single dose 1 mg per mouse
[3] = patients taking both ciprofloxacin and theophylline; many to the toxic range; cited from earlier work
[4] = in vivo; cited from earlier work

SMILES	% SURVIVALS AT DAY 14 POST INFECTION (Francisella tularensis [1]; INTRANSAL infection and treatment, 1 day after infection) [%]	% SURVIVALS AT DAY 14 POST INFECTION (Francisella tularensis [1]; INTRANSAL infection and treatment, 2 days after infection) [%]	% SURVIVALS AT DAY 14 POST INFECTION (Francisella tularensis [1]; INTRANSAL infection and treatment, 3 days after infection) [%]	% SURVIVALS AT DAY 14 POST INFECTION (Francisella tularensis [1]; INTRANSAL infection and treatment, 7 days after infection) [%]	% SURVIVALS AT DAY 14 POST INFECTION (Francisella tularensis [1]; INTRAVENOUS infection and treatment, 1 day after infection) [%]	% SURVIVALS AT DAY 14 POST INFECTION (Francisella tularensis [1]; INTRAVENOUS infection and treatment, 2 days after infection) [%]	% SURVIVALS AT DAY 14 POST INFECTION (Francisella tularensis [1]; INTRAVENOUS infection and treatment, 3 days after infection) [%]	% SURVIVALS AT DAY 14 POST INFECTION (Francisella tularensis [1]; INTRAVENOUS infection and treatment, 7 days after infection) [%]	efficacy in the treatment of infected mice (in words) (Francisella tularensis [1]; single dose at day 1, 2, 3 and 7 post infection)	% SURVIVALS AT DAY 14 POST INFECTION (Francisella tularensis [2]; INTRANSAL pretreatment and infection, 1 day before infection) [%]	% SURVIVALS AT DAY 14 POST INFECTION (Francisella tularensis [2]; INTRANSAL pretreatment and infection, 2 days before infection) [%]	% SURVIVALS AT DAY 14 POST INFECTION (Francisella tularensis [2]; INTRANSAL pretreatment and infection, 3 days before infection) [%]	% SURVIVALS AT DAY 14 POST INFECTION (Francisella tularensis [2]; INTRANSAL pretreatment and infection, 7 days before infection) [%]	% SURVIVALS AT DAY 14 POST INFECTION (Francisella tularensis [2]; INTRAVENOUS pretreatment and infection, 1 day before infection) [%]	% SURVIVALS AT DAY 14 POST INFECTION (Francisella tularensis [2]; INTRAVENOUS pretreatment and infection, 2 days before infection) [%]	% SURVIVALS AT DAY 14 POST INFECTION (Francisella tularensis [2]; INTRAVENOUS pretreatment and infection, 3 days before infection) [%]	% SURVIVALS AT DAY 14 POST INFECTION (Francisella tularensis [2]; INTRAVENOUS pretreatment and infection, 7 days before infection) [%]	protection by single dose before infection (in words) (Francisella tularensis [2]; single dose before infection with 10 LD50)	patients who developed increases of theophylline [3]	bioavailability rates [4]
O=C(O)c1cn(C2CC2)c2cc(N3CCNCC3)c(F)cc2c1=O [Ciprofloxacin, ciprofloxacin]	50	0	25	0	0	25	0	12	totally ineffective	0	0	0	12	8	0	12	0	succumbed to 10 LD₅₀ of tularemia in a manner similar to the control untreated mice	20 of 33	–
CC1(C)S[C@@H]2[C@H](NC(=O)Cc3ccccc3)C(=O)N2[C@H]1C(=O)O [penicillin G]	–	–	–	–	–	–	–	–	–	–	–	–	–	–	–	–	–	–	–	45-50%
